Reference: patent US5504103A, “Inhibition of phosphatidylinositol 3-kinase with 17 β-hydroxywortmannin and analogs thereof” (Eli Lilly and Company, priority 1993, dated 1996)
Read-outs that look alike come from different tables or passages of the source.

Columns and labels:
PI 4-kinase = assay: Effect on PI 4-kinase; type: biochemical
[1] = molecular target: bovine brain purified PI 3-kinase; assay: Assay of purified PI 3-kinase activity (32P incorporation into phosphatidylinositol, TLC/scintillation); type: biochemical
Protocol: In another, preferred, method, PI 3-kinase was prepared from bovine brain. Two bovine brains (wet weight about 900 g) were obtained from a local slaughterhouse within minutes of slaughter, packed on ice, and homogenized within one hour. Brains were trimmed of excess fat and blood vessels and then homogenized using a Tekmar Tissuemizer (Cincinnati, Ohio) at 4° C. in 20 mM of Tris(pH 8.3) containing 250 mM of sucrose, 6 mM of β-mercaptoethanol, 1 μg/ml of leupeptin, 1 μg/ml of pepstatin A, 0.4 mM of PMSF, and 1 mM of MgCl2.
Following centrifugation for 60 minutes at 10,000×g, the pH of the supernatant (about 1200 mL) was lowered to 5.75 using dropwise addition of 1M acetic acid at 4° C. After stirring for an additional 15 minutes at 4° C., the solution was centrifuged for 60 minutes at 13,500×g. The supernatant was discarded. Pellets were resuspended in Buffer A (20 mM of Tris, pH 8.3, containing 6 mM of β-mercaptoethanol, 0.1 mM of ethylene glycol-bis(β-aminoethyl ether) N,N,N',N'-tetraacetic acid (EGTA), 1 μg/mL of leupeptin, 1 μg/mL of pepstatin A, and 1 mM of MgCl2), and loaded onto a Fast Flow Q Sepharose column (300 ml) at a flow rate of 5 mL/min at 4° C. […]
PI 3-kinase activity was measured as previously described by Matter, W. F., et al., Biochemical and Biophysical Research Communications, 186: 624-631 (1992). […]

With COC[C@H]1OC(=O)c2coc3c2[C@@]1(C)C1=C(C3=O)[C@@H]2CC[C@H](O)[C@@]2(C)C[C@H]1OC(C)=O [17β-hydroxywortmannin] the “effect on PI 4-kinase” value (PI 4-kinase) was “no effect”, the IC50 [1] was 0.2 ng/mL and the IC50 ([1]; molar value printed in parentheses, read-out: IC50) was 0.46 nM.
